The conditions of series [1]: cited from earlier work.
Series [2] is described as follows: Metabolic stability in mouse liver microsomes. As to conditions: calculated from in vitro half-life; for CLint scaled at 100 μM: mouse, microsomes, pH 7.4, CLint,app. It is filed as in vitro ADME.
Series [3] in a line: Metabolic stability in rat liver microsomes. It is filed as in vitro ADME. As to conditions: pH 7.4. (In general: Microsomes from liver hold many membrane-bound enzymes, among them those of drug oxidation.)
Series [4] is described as follows: Metabolic stability in human liver microsomes. It is filed as in vitro ADME. As to conditions: pH 7.4.
The conditions of series [5]: for plasma concentration: IV dose of 3, mice, normalized to 8.13 mg/kg.
The next series is described as follows: in vivo. As to conditions: male, C57Bl/6J, mouse, iv.
Series [6] relates to Salmonella typhimurium Ames II mixed strains (TA7001 to TA7006) and tester strain TA98. Kind of series: Ames II mutagenicity assay. As to conditions: with and without rat S9 activation, up to 1 mg/mL. On the technique in general: The Ames test detects mutagens through reverse mutation in bacteria.
Series [7] deals with T1, Human recombinant active MMP-2 (Homo sapiens, UniProt P08253).
T1 sequence (P08253 110-660): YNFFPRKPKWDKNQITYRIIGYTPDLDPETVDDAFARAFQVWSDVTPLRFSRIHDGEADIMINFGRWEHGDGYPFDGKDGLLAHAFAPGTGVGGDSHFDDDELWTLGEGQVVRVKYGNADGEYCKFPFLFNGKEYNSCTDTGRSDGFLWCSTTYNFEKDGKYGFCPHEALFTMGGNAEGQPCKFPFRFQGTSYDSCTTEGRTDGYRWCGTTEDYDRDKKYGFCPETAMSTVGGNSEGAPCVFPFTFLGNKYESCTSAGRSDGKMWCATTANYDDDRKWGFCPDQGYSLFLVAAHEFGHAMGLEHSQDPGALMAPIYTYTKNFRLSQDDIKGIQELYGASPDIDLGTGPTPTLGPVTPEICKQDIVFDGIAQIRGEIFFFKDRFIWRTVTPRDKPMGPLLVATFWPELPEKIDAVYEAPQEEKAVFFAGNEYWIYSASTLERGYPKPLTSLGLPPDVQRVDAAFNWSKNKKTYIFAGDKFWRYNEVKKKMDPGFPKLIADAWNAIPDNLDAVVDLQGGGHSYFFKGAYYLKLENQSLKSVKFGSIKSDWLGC
As to conditions: slow-binding.

Series [8] concerns the target catalytic domain of human recombinant MMP-9 (Homo sapiens, UniProt P14780). As to conditions: slow-binding.
Series [9] addresses catalytic domain of MMP-14 (Homo sapiens, UniProt P50281). As to conditions: slow-binding.
For series [10] the following is noted: humans; cited from earlier work.
The mark [11] stands for this setting: t½ α (distribution half life), IV dose of 5d […], mice.
Setting [12] is: t½ β (terminal half life), IV dose of 5d […], mice.

Counter-ions that a name gives are not always drawn. Like-named read-outs stand apart in the source and are kept apart here.

Chain of catalytic domain of human recombinant MMP-9 (P14780 107-444 limits assumed): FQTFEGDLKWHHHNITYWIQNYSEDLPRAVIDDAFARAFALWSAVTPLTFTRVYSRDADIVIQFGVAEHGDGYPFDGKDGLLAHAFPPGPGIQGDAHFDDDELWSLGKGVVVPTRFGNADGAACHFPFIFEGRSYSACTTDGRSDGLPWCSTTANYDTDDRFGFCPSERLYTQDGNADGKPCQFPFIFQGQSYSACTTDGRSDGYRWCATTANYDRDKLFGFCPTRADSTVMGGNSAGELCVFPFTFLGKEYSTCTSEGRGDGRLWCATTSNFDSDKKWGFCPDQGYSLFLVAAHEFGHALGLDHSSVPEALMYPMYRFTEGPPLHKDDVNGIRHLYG

Consider `O=S(=O)(CC1CS1)c1ccc(Oc2ccccc2)cc1` (stereo not drawn) [Compound 1, (4-phenoxyphenylsulfonyl)methylthiirane], for which, in series [1], the “intrinsic clearance in the rat” value is listed as 117 mL/min/kg and the “t½ in rat liver microsomes” value is given as 12.0 min.

As for `Nc1ccc(Oc2ccc(S(=O)(=O)CC3CS3)cc2)cc1` (stereo not drawn) [Compound 3, 4-[4-((Thiiran-2-yl)methylsulfonyl)phenoxy]benazamine · HCl salt], the “CLint,app” value in [2] is 102.8 ± 7.9 mL/min/kg. In addition, the figures for the CLint scaled at 100 μM in [2], in series [3] and in series [4] were 103 mL/min/kg, 60 ± 1.8 mL/min/kg and under 10 mL/min/kg, respectively. Besides, in series [5] (male, C57Bl/6J, mouse, in vivo), the “time plasma levels were higher than the Ki for MMP-9” value was found to be 20 min. Further, in the series “in vivo”, the Vd – broadly, a proportionality between amount in the body and measured concentration, not a real space – was 0.0125 L. Moreover, in the series “in vivo”, the clearance (commonly the volume of plasma or blood freed of the substance per unit of time) amounted to 87.5 mL/min/kg. The half-life (in general, the time needed for the level to fall by half in the phase considered) came out at 2.9 min in the series “in vivo” (setting [11]) and 69 min in the series “in vivo” (setting [12]). The “Ames II mutagenicity response” value in series [6] was “negative (non-mutagenic)”.

Regarding `NCC(=O)Nc1ccc(Oc2ccc(S(=O)(=O)CC3CS3)cc2)cc1` (stereo not drawn) [Compound 5a], in series [7], the “10^4koff, MMP-2” value is listed as 8.2 ± 0.9 s^−1 and the “10^−3kon, MMP-2” value came to 1.9 ± 0.6 M^−1s^−1. In [8], the “10^4koff, MMP-9 catalytic domain” value amounted to 6.5 ± 0.6 s^−1 and the “10^−3kon, MMP-9 catalytic domain” value is on record as 0.21 ± 0.04 M^−1s^−1.

For `NCCCC[C@H](N)C(=O)Nc1ccc(Oc2ccc(S(=O)(=O)CC3CS3)cc2)cc1` (stereo partly drawn) [Compound 5b], in series [7], the “10^4koff, MMP-2” value stood at 2.1 ± 0.9 s^−1 and the “10^−3kon, MMP-2” value is on record as 3.4 ± 0.1 M^−1s^−1. In series [8], the “10^4koff, MMP-9 catalytic domain” value turned out to be 4.2 ± 0.7 s^−1 and the “10^−3kon, MMP-9 catalytic domain” value is recorded as 0.27 ± 0.04 M^−1s^−1.

`N[C@@H](CCC(=O)O)C(=O)Nc1ccc(Oc2ccc(S(=O)(=O)CC3CS3)cc2)cc1` (stereo partly drawn) [Compound 5c]: in series [7], the “10^4koff, MMP-2” value is listed as 1.8 ± 1.6 s^−1 and the “10^−3kon, MMP-2” value is 2.5 ± 0.1 M^−1s^−1. In [8], the “10^4koff, MMP-9 catalytic domain” value turned out to be 12.0 ± 0.7 s^−1 and the “10^−3kon, MMP-9 catalytic domain” value came to 0.28 ± 0.02 M^−1s^−1.

As to `N=C(N)NCCC[C@H](N)C(=O)Nc1ccc(Oc2ccc(S(=O)(=O)CC3CS3)cc2)cc1` (stereo partly drawn) [Compound 5d], the CLint scaled (as a rule, the rate of metabolic loss divided by the concentration) at 100 μM in series [2] is under 47 mL/min/kg; in [3] it was 23.7 ± 1.8 mL/min/kg; in series [4] it was under 10 mL/min/kg. In series [3], this compound had a half-life at 100 μM of at least 60 min. The compound also registered a Vd in “in vivo” of 0.0978 L/kg. The clearance in “in vivo” amounted to 58.2 mL/min/kg. Besides, the half-life in the series “in vivo” (elimination (terminal) half life t½ β, IV dose of 5d […], mice) was over 240 min; in the series “in vivo” (setting [11]) it was under 1 min; in the series “in vivo” (setting [12]), 260 min. Moreover, in series [6], the “Ames II mutagenicity response” value is “negative (non-mutagenic)”.

Turning to `Nc1ccc(Oc2ccc(S(=O)(=O)CC3CS3)cc2)cc1O` (stereo not drawn) [Compound 13, 2-Amino-5-(4-((thiiran-2-ylmethyl)sulfonyl)phenoxy)phenol], in series [7], the “10^4koff, MMP-2” value came out at 1.4 ± 0.7 s^−1 and the “10^−3kon, MMP-2” value is listed as 1.7 ± 0.1 M^−1s^−1. Moreover, in series [8], the “10^4koff, MMP-9 catalytic domain” value was 5.3 ± 1.0 s^−1 and the “10^−3kon, MMP-9 catalytic domain” value is 1.1 ± 0.1 M^−1s^−1. Further, in series [9], the “10^4koff, MMP-14 catalytic domain” value worked out at 7.0 ± 1.6 s^−1 and the “10^−3kon, MMP-14 catalytic domain” value is on record as 2.7 ± 0.3 M^−1 s^−1.

For `CC(=O)Nc1ccc(Oc2ccc(S(=O)(=O)CC3CS3)cc2)cc1` (stereo not drawn) [Compound M3], the plasma concentration came out at 0.197 ± 0.0616 µM in series [5] (2-3 min); 0.462 ± 0.313 µM in series [5] (4-5 min); 0.192 ± 0.0121 µM in [5] (7-8 min); 0.150 ± 0.0272 µM in [5] (11-12 min); 0.0273 ± 0.00628 µM in series [5] (62-66 min). The half-life in the series “in vivo” (setting [11]) worked out at 12 min; in the series “in vivo” (t½ α, IV dose of 3, mice) it was 5.1 min.

For `CC(C)c1cccc(C(C)C)c1O` [propofol], the Vd in series [10] is on record as 12.4 L/kg.

Values taken from PMC3190643 (Journal of medicinal chemistry, 2011).
